Data on three compounds can be found in patent publication US5536740A, “Skin care compositions containing dimethyl imidazolidinone and retinol or retinyl ester” (priority 1995, dated 1996).

Entries after “also recorded” stand apart in the source; their conditions may differ. Read-outs that look alike come from different tables or passages of the source.

Assay [1] relates to TGase I in human keratinocytes. The experiment in a line: ELISA based transglutaminase I (TGase I) assay of keratinocyte differentiation. Type of assay: cell-based. The protocol: (§1) Human keratinocytes, isolated from neonatal foreskin by trypsin treatment were grown in Dulbecco Modification Eagle (DME) Hams F12 (1:1) medium/10% fetal calf serum in the presence of irradiated 3T3 mouse fibroblasts for establishing dividing keratinocyte colonies. Cells were grown under the above condition until their second passage and kept frozen for future use. […] On day 7, when the cells were 80-90% confluent, they were trypsinized and plated in the serum-free medium for the various experiments.
Transglutaminase Assay and Keratinocyte Differentiation
During the process of terminal differentiation in the epidermis, a 15 nm thick layer of protein, known as the cornified envelope (CE) is formed on the inner surface of the cell periphery. The CE is composed of numerous distinct proteins which have been cross-linked together by the formation of N^ε -(γ-glutamyl)lysine isodipeptide bonds catalyzed by the action of at least two different transglutaminases (TGases) expressed in the epidermis. TGase 1 is expressed in abundance in the differentiated layers of the epidermis, especially the granular layer, but is absent in the undifferentiated basal epidermis. Thus TGase I is a useful marker of epidermal keratinocyte differentiation with high TGase I levels indicating a more differentiated state. An ELISA based TGase I assay, using a TGase I antibody, was used to assess the state of differentiation of the cultured keratinocytes in the examples that follow.
Keratinocytes (cultured as described above) were plated in 96 well plates at a density of 3,000 cells per well in 200 μl media. After incubation for four days the media was changed to media containing test compounds (six replicates per test). The cells were cultured for a further 72 hours after which time the media was aspirated and the plates stored at -70° C. Plates were removed from the freezer, and the cells washed with PBS. 100 μl sterile water was added and the cells were freeze fractured by freezing at -70° C. then thawing. The cells were incubated for one hour at room temperature (R/T) with PBS/3% BSA (wash buffer, bovine serum albumin), then rinsed with a fresh aliquot of wash buffer. Cells were incubated with 50 μl of primary antibodies monoclonal anti-human transglutaminase (IgG) obtained from Amersham (mouse) diluted 1:300 in wash buffer for one hour, 37° C. then rinsed two times with wash buffer. Cells were then incubated with 50 μl of secondary antibody (Feb fragment, peroxidase conjugated anti-mouse IgG obtaining from Amersham) diluted 1:200 in wash buffer for one hour at 37° C., then rinsed two times with wash buffer. Cells were incubated with substrate solution (4 mg o-phenylene diamine and 3.3 μl 30% H2 O2 in 10 ml 0.1M citrate buffer pH 5.0) for five minutes, R/T, in darkness (under aluminum foil). The reaction was stopped by the addition of 50 μl 4N […]. The absorbance of samples was read at 492 nm in the plate reader. Out of the six replicates, four were treated with both antibodies, two were treated only with the secondary antibody (i.e., to determine background binding of enzyme conjugated Ab). TGase levels were determined by subtracting background from the readings from each treatment and determining mean ±s.d. for the replicates exposed to both Ab.
The level of TGase-1 was normalized to DNA content of the cells in the same well thus eliminating variation due to differences in cell number. DNA quantitation is a particularly useful indicator of cell number, including keratinocyte cell number, because each cell has to all intents and purposes an identical genome and therefore an identical quantity of DNA. The total DNA content of a well of cells therefore is directly proportional to the cell number in that well. Quantitation of DNA was used to normalize the TGase data to cell number.
Keratinocytes were plated in 96 well plates at a density of 3,000 cells per well in […] media.
(In an ELISA, binding on a coated surface is turned into a signal by an enzyme label.)

The next assay relates to Human keratinocytes. The assay can be described thus: 3H-thymidine incorporation assay of keratinocyte proliferation. Type of assay: cell-based. Particulars: for mean Thymidine incorp/μg protein ± s.d / mean Thymidine incorp./μg protein ± s.d / activity at 0.25 µM / activity at 0.025 µM / activity at 0.0025 µM: 24 hours. The protocol:
as §1
^3 H-Thymidine Incorporation and Keratinocyte Proliferation
The incorporation of ^3 H-thymidine by cultured keratinocytes was used as an assay of keratinocyte proliferation. Thymidine is one of four deoxynucleosides which are the monomeric units of DNA, the universal library of genetic information in the animal kingdom. Prior to cell division of a somatic cell such as a keratinocyte, the complete genome of the cell undergoing cell division is replicated. This involves large scale DNA synthesis by the cell and enables both daughter cells to receive identical copies of the genetic material. When ^3 H-thymidine is included in the culture media of keratinocytes which are synthesizing DNA in preparation for cell division then the labelled nucleoside is incorporated into the newly synthesized DNA. The extent of incorporation of ^3 -thymidine into a population of cells is proportional to the rate of DNA synthesis by this population of cells and therefore an indication of their cellular proliferation.
Keratinocytes (that were cultured as described above) were plated in 24 well plates at a density of 40,000 cells per well in 1 ml media. After incubation for four days or until the cells were 60-70% confluent, the media was changed. Test compounds were added (in triplicate) to the wells 24 hours after the media change, and four hours later 1 μCi^3 H-Thymidine in 50 μl media was added per well. Cells were incubated for a further 24 hours. Media was removed from the cells, 10% ice cold trichloroacetic acid (TCA) added and plates were incubated on ice for 30 minutes. Cells were washed five times with 5% TCA and allowed to dissolve in 500 μl 0.1M NaOH for at least one hour (usually overnight). The preparations were neutralized with 0.1M HCl; 50 μl of the cell preparation was used to determine total protein content. Disintegrations per minute (DPM) from a H labelling of DNA was determined by liquid scintillation counting of 900 μl of the cell preparation. Thymidine incorporation results were expressed as DPM/μg protein.
For orientation: Uptake of a labelled nucleoside into DNA is a usual measure of proliferation.

Setting [2] is: 2.5 × 10^-7 M, normalized to DNA, 72 hours, n = 3.
[3] abbreviates: 2.5 × 10^-8 M, normalized to DNA, 72 hours, n = 3.
[4] abbreviates: 2.5 × 10^-9 M (ROH line printed 2.5 × 10^-0 M), normalized to DNA, 72 hours, n = 3.
[5] abbreviates: Example 4, 2.5 × 10^-8 M, n = 3.
Setting [6] is: Homo sapiens, Keratinocyte, 72 h, 2.5 × 10^-7 M, normalized to DNA, 72 hours, n = 3, read-out: mean TGase/DNA (% control).
Where [7] appears, read: Homo sapiens, Keratinocyte, 72 h, 2.5 × 10^-8 M, normalized to DNA, 72 hours, n = 3, read-out: mean TGase/DNA (% control).
Where [8] appears, read: Homo sapiens, Keratinocyte, 72 h, 2.5 × 10^-9 M (ROH line printed 2.5 × 10^-0 M), normalized to DNA, 72 hours, n = 3, read-out: mean TGase/DNA (% control).
Setting [9] is: 2.5 × 10^-8 M, n = 3 (Examples 1-3).
[10] abbreviates: Homo sapiens, Keratinocyte, 2.5 × 10^-7 M, n = 3, read-out: mean Thymidine incorp./μg protein (% control).
[11] abbreviates: Homo sapiens, Keratinocyte, 2.5 × 10^-8 M, n = 3 (Examples 1-3), read-out: mean Thymidine incorp./μg protein (% control).
The mark [12] stands for this setting: Homo sapiens, Keratinocyte, 2.5 × 10^-9 M, n = 3, read-out: mean Thymidine incorp./μg protein (% control).

Turning to `CN1CCN(C)C1=O` [Dimethyl imidazolidinone, 1,3-dimethyl-2-imidazolidinone], the “effect on keratinocyte TGase level / differentiation (in words)” value in assay [1] was “had no effect on keratinocyte TG1 levels”. Further, the “mean TGase ± s.d” value in assay [1] (Example 4, 10^-8 M, n = 3) came out at 0.990 ± 0.251. In assay [1] (Homo sapiens, Keratinocyte, 72 h, read-out: mean TGase (% control)), the activity at 0.01 µM was 99%. For the same compound, in the assay on Human keratinocytes, the “effect on keratinocyte proliferation (in words)” value is on record as “had no effect on keratinocyte proliferation on its own; also recorded: exerts little or no benefit”. Besides, the “mean Thymidine incorp/μg protein ± s.d” value in the assay on Human keratinocytes (10^-6 M, n = 3) is recorded as 1892 ± 119 DPM/μg protein; with Human keratinocytes (10^-7 M, n = 3 (Example 3)), 2260 ± 166 DPM/μg protein; in the assay with Human keratinocytes (10^-9 M, n = 3) it was 2003 ± 128 DPM/μg protein; in the assay with Human keratinocytes (Example 4, 10^-7 M, n = 3), 3214 ± 128 DPM/μg protein. Moreover, the activity at 1 µM with Human keratinocytes (Homo sapiens, Keratinocyte, 24 h, read-out: mean Thymidine incorp/μg protein (% control), 10^-6 M, 24 hours, n = 3) was determined as 90%. The activity at 0.1 µM with Human keratinocytes (Homo sapiens, Keratinocyte, 24 h, read-out: mean Thymidine incorp/μg protein (% control), 10^-7 M, 24 hours, n = 3 (Example 3)) came to 108%; in the assay with Human keratinocytes (Homo sapiens, Keratinocyte, 24 h, read-out: mean Thymidine incorp/μg protein (% control), Example 4, 10^-7 M, 24 hours, n = 3) it was 92%. In the assay with Human keratinocytes (Homo sapiens, Keratinocyte, 24 h, read-out: mean Thymidine incorp/μg protein (% control), 10^-9 M, 24 hours, n = 3), the activity at 0.001 µM amounted to 96%.

As for `CC1=C(/C=C/C(C)=C/C=C/C(C)=C/C(=O)O)C(C)(C)CCC1` [RA, retinoic acid, reference compound], the “mean TGase/DNA × 10^-4 ± s.d” value in assay [1] (setting [2]) is 0.16 ± 0.11 × 10^-4; in assay [1] (setting [3]), 1.34 ± 0.40 × 10^-4; in assay [1] (setting [4]) it was 1.87 ± 0.49 × 10^-4. For the same compound, in assay [1] (setting [5]), the “mean TGase ± s.d” value amounted to 0.155 ± 0.098. For the same compound, the “mean TGase (% control)” value in assay [1] (Example 4, 2.5 × 10^-8 M, n = 3, 0.025 µM, 4320 min) was 15%. For the same compound, the results for the activity at 0.25 µM (in assay [1] (setting [6]); in the assay on Human keratinocytes (setting [10])) were 7% and 118%, respectively. Moreover, the activity at 0.025 µM in assay [1] (setting [7]) is 55%; in assay [1] (Homo sapiens, Keratinocyte, 72 h, Example 4, 2.5 × 10^-8 M, n = 3, read-out: mean TGase (% control)), 16%; with Human keratinocytes (setting [11]), 128%; with Human keratinocytes (Homo sapiens, Keratinocyte, Example 4, 2.5 × 10^-8 M, n = 3, read-out: mean Thymidine incorp/μg protein (% control)) it was 106%. For the same compound, the activity at 0.0025 µM in assay [1] (setting [8]) worked out at 77%; with Human keratinocytes (setting [12]), 122%. In addition, the “effect on keratinocyte TGase level / differentiation (in words)” value is “decreased keratinocyte differentiation” in assay [1] (listed as Retinoic acid); “decreased keratinocyte TGase level over both the ethanol control and did so to a significantly greater extent than each of the corresponding 2.5×10^-7 M, 2.5×10^-8 M and 2.5×10^-9 M retinol treatments” in assay [1] (listed as retinoic acid). Further, the “mean Thymidine incorp./μg protein ± s.d” value with Human keratinocytes (2.5 × 10^-7 M, n = 3) stood at 2475 ± 116 DPM/μg protein; with Human keratinocytes (setting [9]), 2686 ± 72 DPM/μg protein; in the assay on Human keratinocytes (2.5 × 10^-9 M, n = 3), 2556 ± 80 DPM/μg protein. The “mean Thymidine incorp/μg protein ± s.d” value in the assay on Human keratinocytes (setting [5]) is 3691 ± 205 DPM/μg protein. Also, the activation at 0.025 µM in the assay with Human keratinocytes (Homo sapiens, Keratinocyte, read-out: increase in keratinocyte thymidine incorporation over the 2.5×10^-8 M retinol treatment, Example 2, 2.5×10^-8 M) came out at 28%; with Human keratinocytes (Homo sapiens, Keratinocyte, read-out: increase in keratinocyte thymidine incorporation over the 2.5×10^-8 M retinyl palmitate treatment, Example 4, 2.5×10^-8 M), 6%; with Human keratinocytes (Homo sapiens, Keratinocyte, read-out: increase in keratinocyte thymidine incorporation over the ethanol control, Example 2, 2.5×10^-8 M), 28%; in the assay with Human keratinocytes (Homo sapiens, Keratinocyte, read-out: increase in keratinocyte thymidine incorporation over the ethanol control, Example 4, 2.5×10^-8 M), 6%. Also, the “effect on keratinocyte proliferation (in words)” value in the assay with Human keratinocytes (listed as Retinoic acid) is “increased keratinocyte proliferation”; in the assay on Human keratinocytes (listed as retinoic acid) it was “significantly increased keratinocyte proliferation over both the ethanol control and each of the 2.5×10^-7 M, 2.5×10^-8 M and 2.5×10^-9 M retinol treatments and they did so in a dose dependant manner”.

Consider `CC1=C(/C=C/C(C)=C/C=C/C(C)=C/CO)C(C)(C)CCC1` [ROH, Retinol], for which the results for the “mean TGase/DNA × 10^-4 ± s.d” value in assay [1] (setting [2]), in assay [1] (setting [3]) and in assay [1] (setting [4]) were 1.14 ± 0.22 × 10^-4, 1.89 ± 0.30 × 10^-4 and 2.70 ± 0.59 × 10^-4, respectively. Moreover, the activity at 0.25 µM in assay [1] (setting [6]) came to 47%; with Human keratinocytes (setting [10]) it was 106%. Also, the activity at 0.025 µM in assay [1] (setting [7]) was found to be 77%; in the assay on Human keratinocytes (setting [11]) it was 97%. The activity at 0.0025 µM in assay [1] (setting [8]) was greater than 100%; in the assay with Human keratinocytes (setting [12]) it was 94%. Besides, the “effect on keratinocyte TGase level / differentiation (in words)” value in assay [1] (listed as Retinol) is “significantly less effective than retinoic acid at inhibiting keratinocyte differentiation”; in assay [1] (listed as retinol), “The decrease in transglutaminase level was dose dependant for both retinoic acid and retinol”. Besides, the “effect on keratinocyte proliferation (in words)” value with Human keratinocytes is given as “completely ineffective at increasing keratinocyte proliferation”. For the same compound, the “mean Thymidine incorp./μg protein ± s.d” value with Human keratinocytes (2.5 × 10^-7 M, n = 3) worked out at 2218 ± 73 DPM/μg protein; in the assay on Human keratinocytes (2.5 × 10^-7 M, n = 3, listed as Retinol) it was 2218 ± 79 DPM/μg protein; in the assay with Human keratinocytes (setting [9]), 2034 ± 46 DPM/μg protein; with Human keratinocytes (2.5 × 10^-9 M, n = 3), 1977 ± 19 DPM/μg protein.
